What was measured:
Format in all cases: in vivo, human
[1] = test system: overweight to obese males; assay: 21-day oral DEA study: fasting insulin and OGTT insulin; details: for AUC insulin: 180-minute OGTT, in µU·min/mL (unit assumed); for AUC insulin / Fasting insulin: D21 post-treatment, 21 daily oral doses of 1 mg/kg, mean
Text: Seventeen subjects were recruited by sampling a large population at risk for T2D (according to convenience sample; a statistical method of drawing representative data) to measure the changes in glucose, lipid and insulin measurements after an OGTT after the subjects had been treated for 21 days.
The subjects were overweight to obese males with body mass indices (BMIs) ranging from 27.2 to 43.6 kg/m^2, glycated hemoglobin A1c (HbA1c) of 5.0-6.2% and insulin levels of 8.8-52 μU/mL. The study was conducted by Clinical Trials of Texas, Inc. in San Antonio, TX. The cohort represented a population at risk for the development of T2D. The study was restricted to male participants to control for the variability of insulin sensitivity associated with the menstrual cycle. The subjects received 21 daily oral doses (“q1d”) of 1 mg/kg DEA. An OGTT, in which 75 grams of glucose in a total volume of 300 mL was administered orally to subjects, was performed on Day 0 and again on Day 21 and glucose measurements performed at −30, −5 and 0 min, insulin measurements at −30 and 0 min, and both glucose measurements and insulin measurements at 30, 60, 90, 120 and 180 minutes, where “0 min” is the time at which the glucose solution was administered. The 180-minute time point was selected to gain an early insight into the possible signal of drug action. Blood lipid levels (triglycerides, cholesterol, HDL, non-cholesterol HDL and LDL) were measured before the onset of treatment on Day 0 and again on Day 21. The error of the assays was <5% [36].
The results of the various marker measurements at Day 0 and Day 21 were compared using both the paired Students T-test and the Wilcoxon signed rank test. The results of both calculations are provided; the p-value from the paired Student T-test first, followed by the p-value from the Wilcoxon signed rank test. Generalized Estimating Equations and bootstrapping were used to verify the results generated with other methods. Fasting glucose was calculated as the average of the −30, −5, and 0-minute measurements and fasting insulin was calculated as the average of the −30- and 0-minute measurements. Spearman's correlation coefficient was calculated for the relationship between A1c and pre-treatment fasting plasma glucose versus post-treatment fasting plasma glucose. Area under the curve (AUC) was calculated over the 180-minute time span of the OGTT. All analyses were performed using the open language engine R 3.4.4. Statistical significance was at the α=0.05 level.

[2] = test system: subject, with diet induced insulin resistance and diabetes; assay: Example 2: fasting blood lipids after buccal or gastric delivery of DEA; details: for TC, triglyceride, and Calc LDL levels and TC/HDL ratio: all tested dosages vs 0 mg/kg
Text: (§1) Described in this example is an evaluation of the effects of alkyl azelates, such as DEA, on certain markers of insulin resistance and dyslipidemia, namely, blood plasma glucose, insulin levels and/or lipid levels, when administered either for buccal delivery or for gastric delivery in a subject, with diet induced insulin resistance and diabetes with a BMI of approximately 27.
(§2) Diethyl azelate was synthesized from azelaic acid and ethyl alcohol sing the standard acid-catalyzed esterification followed by fractional distillation to produce DEA to 99% purity as determined by chromatography-mass spectrometry (GC-MS). The 99% distilled DEA distillation product was administered in unformulated, unencapsulated, etc. form (i.e., “as is”) for buccal delivery as indicated below.
(§3) For gastric delivery, the 99% DEA distillation product was placed in a hard gelatin capsule, size 00 (PureCaps USA, Philmont, NY) and administered for gastric delivery by swallowing with a drink of water.
Fasting blood levels of cholesterol, high density lipoprotein (HDL) cholesterol, and triglycerides were measured using Lipid Panel PTS test strips and CardioChek P-A test system (Polymer Technology Systems, Inc., Indianapolis, IN) according to the manufacturer's instructions.

[3] = test system: subject, with diet induced insulin resistance and diabetes; assay: Example 2: plasma glucose in OGTT after buccal or gastric delivery of DEA; details: for plasma glucose levels during OGTT: 0, 1, 2, 4 hours, FIG. 16
Text: as §1, §2, §3
Fasting blood glucose levels were measured using UniStrip blood glucose test strips (UniStrip Technologies LLC, Charlotte, NC) and OneTouchUltra 2 blood glucose meter (LifeScan OneTouch, Tampa. FL).

[4] = buccal delivery, 0.5, 1, 2, 4 mg/kg vs 0 mg/kg, FIG. 8, greatest lowering at 0.5 mg/kg

CCOC(=O)CCCCCCCC(=O)OCC [DEA, diethyl azelate]
AUC insulin ([1]; All (n = 17), D0 24963): 26834
AUC insulin ([1]; FPG <100 mg/dL (n = 8), D0 22215): 27461
AUC insulin ([1]; FPG >100 mg/dL (n = 9), D0 27405): 26275
AUC insulin ([1]; High A1c (n = 9), D0 27055): 25988
AUC insulin ([1]; Low A1c (n = 8), D0 22609): 27785
Fasting insulin ([1]; All (n = 17), D0 26.082): 25.894 μU/mL
Fasting insulin ([1]; FPG <100 mg/dL (n = 8), D0 20.212): 20.95 μU/mL
Fasting insulin ([1]; FPG >100 mg/dL (n = 9), D0 31.3): 30.289 μU/mL
Fasting insulin ([1]; High A1c (n = 9), D0 30.411): 28.9 μU/mL
Fasting insulin ([1]; Low A1c (n = 8), D0 21.212): 22.512 μU/mL
decrease of fasting insulin ([1]; all 17 subjects, p=0.916, p=0.963): 0.7 μU/mL
decrease of median insulin area under the curve (AUC) ([1]; high A1c group, not statistically significant): 1663.5
decrease of fasting insulin ([1]; high A1c group, p=0.916, p=0.963): 0.84 μU/mL
decrease of fasting insulin ([1]; high fasting plasma glucose group, p=0.752, p=0.855): 2.97 μU/mL
increase of median insulin area under the curve (AUC) ([1]; low A1c group, not statistically significant): 3380.25
decrease of fasting insulin ([1]; remaining 16 subjects (subject #1 excluded), p=0.007, 0.009): 13.4%
average fasting insulin post-treatment ([1]; subject #1, outlier in the high A1c group, increased from 77.45 pre-treatment): 96.15 μU/mL
median decrease of fasting insulin ([1]; subset of 8 subjects (#2-4, 8-11, and 13)): 42.5%
decrease of mean fasting insulin ([1]; subset of 8 subjects (#2-4, 8-11, and 13), p=0.004, p=0.008): 37.8%
improvement in total cholesterol and TC/HDL ratio, buccal relative to gastric delivery ([2]; FIG. 17, T test): statistically significant greater improvement
HDL levels ([2]; buccal delivery, 0.5, 1, 2, 4 mg/kg vs 0 mg/kg, FIG. 8): increased at all DEA doses tested
Triglycerides [2, 4]: lowered
calculated LDL [2, 4]: lowered
total cholesterol [2, 4]: lowered
HDL levels ([2]; buccal delivery, all dosages vs 0 mg/kg, FIG. 15): elevated (i.e., improved)
TC/HDL ratio ([2]; buccal delivery, all tested amounts 0.5-4 mg/kg vs no DEA, FIG. 9, lowered the most with 0.5 mg/kg): lowered (i.e., improved) TC/HDL ratio
TC, triglyceride, and Calc LDL levels and TC/HDL ratio ([2]; buccal delivery, FIG. 15, more pronounced at 1 mg/kg): lowered (i.e., improved)
HDL levels ([2]; gastric delivery, all dosages vs 0 mg/kg, FIG. 15): elevated (i.e., improved)
TC, triglyceride, and Calc LDL levels and TC/HDL ratio ([2]; gastric delivery, FIG. 15, more pronounced at 0.25 mg/kg): lowered (i.e., improved)
improvement in plasma glucose levels, buccal relative to gastric delivery ([3]; at 0 hour and 4 hours after 75 grams of glucose in OGTT, FIG. 17, T test): significantly significant greater improvement
plasma glucose levels during OGTT ([3]; buccal delivery vs 0 mg/kg, more pronounced at 0.5 mg/kg): lowered (i.e., improved) plasma glucose levels at most tested DEA dosages and post-glucose ingestion time points
plasma glucose concentrations during OGTT ([3]; buccal, 0.5-4 mg/kg vs 0, 0, 1, 2, 4 hours after 75 grams of glucose, FIG. 10, most pronounced at 0.5 and 1 mg/kg): lowered (improved) plasma glucose levels
plasma glucose concentrations during fasting OGTT ([3]; buccal, 0.5-4 mg/kg vs 0, FIG. 11, most pronounced at 0.5 and 1 mg/kg): lowered (improved) plasma glucose levels
plasma glucose concentrations during OGTT at 1 hour ([3]; buccal, 0.5-4 mg/kg vs 0, FIG. 12, most pronounced at 0.5 mg/kg): lowered (improved) plasma glucose levels in the setting of OGTT at all DEA dosage amounts
plasma glucose concentrations during OGTT at 2 hours ([3]; buccal, 0.5-4 mg/kg vs 0, FIG. 13, most pronounced at 0.5 and 1 mg/kg): lowered (improved) plasma glucose levels in the setting of OGTT at all DEA dosage amounts
plasma glucose concentrations during OGTT at 4 hours ([3]; buccal, 0.5-4 mg/kg vs 0, FIG. 14): lowered (improved) plasma glucose levels in the setting of OGTT at the 0.5 mg/kg, 1 mg/kg, and 4 mg/kg DEA dosage amounts
plasma glucose levels during OGTT ([3]; gastric delivery vs 0 mg/kg, more pronounced at 0.25 mg/kg): lowered (i.e., improved) plasma glucose levels at most tested DEA dosages and post-glucose ingestion time points
